# Data from patent US20260055138A1, “CARRIER PEPTIDE FRAGMENT AND USE THEREOF” (TOAGOSEI CO., LTD., priority 2022, published 2026).
# Primed or numbered codes have the meaning given here. [ ]: non-standard residue; d: D form. FAM = 5(6)-carboxyfluorescein; FAM″ = C-terminal FAM
# Test system: HeLa cells
# Assay: Evaluation of cell membrane permeability by flow cytometry
# Assay type: cell-based, human
# Settings: 10 μM, 20 hours, compared with Example 15
# Procedure: As the eukaryotic cells, HeLa cells (established cell strain derived from a human cervical cancer cell) were used and the cell membrane permeability of the samples 1 to 15 was analyzed. In Examples 1 to 15, the prepared sample solutions 1 to 15 were used, respectively, and in Example 16, the FAM solution was used.
# The HeLa cell was cultured in 10% fetal bovine serum (FBS)-containing Dulbecco's modified Eagle's medium (DMEM (Cat No. 044-29765, manufactured by FUJIFILM Wako Pure Chemical Corporation)), which is a culture medium.
# The HeLa cell that adhered to a culture plate was cleaned with PBS and then, a 0.25%-trypsin/EDTA solution was added thereto, and incubation was performed for three minutes at 37° C. After the incubation, the aforementioned 10% FBS-containing DMEM was added to deactivate trypsin and then, five-minute centrifugal separation was performed at 150×g to precipitate the cells. After the supernatant generated by the centrifugal separation was removed, the 10% FBS-containing DMEM was added to the precipitate (cell pellet) to prepare a cell suspension of about 2×10^5 cells/mL. The cell suspension was added by 1 mL to a well of a commercially available six-hole (well) plate (manufactured by AGC TECHNO GLASS Co., Ltd.) so as to seed the cell (about 2×10^5 cells/well). In addition, the 2 mM sample solution 1 was diluted with the 10% FBS-containing DMEM to prepare the sample solution 1 in which the concentration of the sample 1 was 20 μM. Then, 1 mL of the 20 μM sample solution 1 was added to the well (that is, so that the concentration of the sample 1 became 10 μM and the DMSO concentration became 0.5% in the culture solution in the well). After that, the cell was incubated for 20 hours at 37° C. under a 5% CO2 condition.
# After the 20-hour incubation, the culture supernatant was removed from the well and the cells in the well were cleaned twice with 1 mL of PBS. Next, 200 μL of the 0.25% trypsin/EDTA solution was added to the well and the incubation was performed for three minutes at 37° C. After the incubation, 400 μL of the 10% FBS-containing DMEM was added to the well to deactivate the trypsin. Subsequently, the cell suspension in the well was transferred to a tube and the cells were collected. After that, 600 μL of PBS was added further to the well to clean the well. Then, PBS in the well was transferred to the tube, so that the cells remaining in the well were collected in the tube. This tube was subjected to five-minute centrifugal separation at 4° C. under a condition of 210×g. After the centrifugal separation, the supernatant was removed and the precipitate (cell pellet) was suspended (cleaned) with 1 mL of PBS, which was followed by the centrifugal separation under the same condition as that described above. After this operation was repeated twice, the supernatant was removed and thus, the cells (cell pellet) cultured in a culture medium containing the sample 1 were obtained.
# Regarding the obtained cells (cell pellet), the cell membrane permeability of the sample 1 was analyzed using a flow cytometer. As the flow cytometer, On-Chip Flowcytometer (manufactured by On-Chip Biotechnologies Co., LTD.) was used.
# For such an analysis, the obtained cell pellet was suspended with 100 μL of on-chip T buffer to prepare a cell suspension for analysis.
# Using the aforementioned flow cytometer, gating based on forward scatter (FSC) and side scatter (SSC) was performed to set a gate about a cell group to be analyzed, and the fluorescence intensity was measured about the cell group in this gate. Note that the analysis was performed so that the cell group contained at least 10000 cells. The fluorescence intensity was measured using a fluorescence detector FL2 of the flow cytometer (optimum detection wavelength around 543 nm) capable of detecting the fluorescence wavelength of FAM. […]
row,Substance,"value of MFI, comparison in words"
1,Ac-KKRTLRKSNRKkR-FAM [Example 12],high in particular

# Same assay, conditions: construct (additive) 10 μM, 0.5% DMSO in culture solution, 20 hours incubation at 37° C., FAM fluorescence, detector FL2
row,Substance,MFI (median fluorescence intensity)
1,Ac-KKRTLRKSNRKKR-FAM [Example 7] (Ac-KKRTLR[dK]SNRKKR-{FAM}),16.9
2,Ac-KKRTLRKSNRkKR-FAM (Ac-KKRTLRKSNR[dK]KR-{FAM″}) [Example 11],17.4
3,Ac-KKRTlRKSNRKKR-FAM (Ac-KKRT[dL]RKSNRKKR-{FAM″}) [Example 5],16.5
4,Ac-kkrtlrksnrkkr-FAM (Ac-[dK][dK][dR][dT][dL][dR][dK][dS][dN][dR][dK][dK][dR]-{FAM″}) [Example 14],16.1
5,Ac-KKRTLRKSNRKKR-FAM [Example 15] (Ac-KKRTLRKSNRKKR-{FAM″}) [reference compound],13.0
6,Ac-KKRtLRKSNRKKR-FAM (Ac-KKR[dT]LRKSNRKKR-{FAM″}) [Example 4],15.9
7,Ac-KKRTLRKSNRKkR-FAM [Example 12],33.8
8,Ac-KKrTLRKSNRKKR-FAM (Ac-KK[dR]TLRKSNRKKR-{FAM″}) [Example 3],13.9
9,Ac-KKRTLRKSNrKKR-FAM (Ac-KKRTLRKSN[dR]KKR-{FAM″}) [Example 10],15.5
10,Ac-KKRTLRKsNRKKR-FAM (Ac-KKRTLRK[dS]NRKKR-{FAM″}) [Example 8],14.3
11,"5(6)-carboxyfluorescein [Example 16, reference compound]",10.6
12,Ac-KkRTLRKSNRKKR-FAM (Ac-K[dK]RTLRKSNRKKR-{FAM″}) [Example 2],14.1
13,Ac-KKRTLRKSNRKKr-FAM (Ac-KKRTLRKSNRKK[dR]-{FAM″}) [Example 13],15.2
14,Ac-KKRTLrKSNRKKR-FAM [Example 6],17.5
15,Ac-kKRTLRKSNRKKR-FAM (Ac-[dK]KRTLRKSNRKKR-{FAM″}) [Example 1],13.9
16,Ac-KKRTLRKSnRKKR-FAM (Ac-KKRTLRKS[dN]RKKR-{FAM″}) [Example 9],15.6
